Read-outs that look alike come from different tables or passages of the source.
Tests used:
[1] = tested on: PBML, Peripheral Blood Mononuclear Leukocytes; assay: In vitro cytotoxicity (MTT) on PBML; format: cell-based; conditions: Leukocyte
Protocol: (§1) This assay was performed to determine the effect of compounds of the present invention on cell cytotoxicity. Cells were incubated in presence or absence of compounds in their respective conditioned media. […] The supernatant was discarded and 100 μl of dimethylsulfoxide (DMSO) was added. Absorbance was read at […] with an ELISA Tecan SUNRISE™ plate reader. The control group consisted of cells without compounds and is referred to as 100% of viable cells. IC50 was determined using PRISM® software.
(§2) The predictive utility of cell-based cytotoxicity assays to assess the potential in vivo anticancer activity of compounds with selected cancer cell lines is well established in the art and the use of whole cells, instead of isolated protein receptors or enzymes, provides a more reliable determination of activity. See, for example, Paull et al. J. Natl. Cancer Inst. 81:1088-1092 (1989); Monks et al. J. Natl. Cancer Inst. 83:757-766 (1991); Bandes et al. J. Natl. Cancer Inst. 86:770-775 (1994); and Kamate et al. Intl. J. Cancer 100:571-579 (2002).

[2] = tested on: NHDF, Normal Human Dermal Fibroblast; assay: In vitro cytotoxicity (MTT) on NHDF; format: cell-based
Protocol: as §1, §2

[3] = tested on: CAKI-2, human kidney cell; assay: In vitro cytotoxicity (MTT) on CAKI-2; format: cell-based
Protocol: as §1, §2

[4] = tested on: Hep-G2, human liver cell; assay: In vitro cytotoxicity (MTT) on Hep-G2; format: cell-based
Protocol: as §1, §2

[5] = tested on: PC-3, human prostate carcinoma cell; assay: In vitro cytotoxicity (MTT) on PC-3; format: cell-based
Protocol: as §1, §2

[6] = tested on: B16F10, murine melanoma cell; assay: In vitro cytotoxicity (MTT) on B16F10; format: cell-based; conditions: Mus musculus, B16-F10
Protocol: as §1, §2

[7] = tested on: DA-3; assay: In vitro cytotoxicity (MTT) on DA-3; format: cell-based, BALB/c mice; conditions: Mus musculus
Protocol: as §1, §2
(§3) The syngeneic tumor DMBA3 (DA-3, breast carcinoma model) arose from a preneoplastic lesion treated with 7,12-dimethylbenzanthracene in female BALB/c mice. DA-3 cells were grown as monolayer cultures in plastic flasks in RPMI-1640 containing 0.1 mM nonessential amino acids, 0.1 μM sodium pyruvate, 2 mM L-glutamine. This was further supplemented with 50 μM 2-mercaptoethanol and 10% fetal bovine serum. The DA-3 tumors were serially passage in vivo by intradermal inoculation of 5×10^5 viable tumor cells to produce localized tumors in 6- to 8-week old BALB/c mice. The animals were then serially monitored by manual palpation for evidence of tumor. Mice were treated at day 11, 18 and 25 with cyclophosphamide (100 mg/kg) and at day 11, 12, 13, 15, 18, 20, 22, 25, 27 and 29 with compound 1, 2, 3 or 8 (50 mg/kg). Mice were sacrificed at day 43. Serial tumor volume was obtained by bi-dimensional diameter measurements with calipers, using the formula 0.4 (a×b^2) where “a” was the major tumor diameter and “b” the minor perpendicular diameter. […] The National Cancer Institute (USA) defines the product as effective if T/C is ≦40%.

[8] = tested on: P815, murine mastocytoma cell; assay: In vitro cytotoxicity (MTT) on P815; format: cell-based; conditions: Mus musculus
Protocol: as §1, §2

[9] = tested on: B16F10 primary tumors; assay: Antitumor effects on a primary B16F10 melanoma tumor; format: in vivo, C57BL/6 mice; conditions: 50 mg/kg i.v. on day 14, 16 and 18
Protocol: Female 6-8 week old C57BL/6 mice were injected intradermally on day 0 with 3.75×10^4 B16F10 melanoma cells from ATCC (source of cell culture, Dr. I. J. Fidler). On day 14, tumors reached […] and animals were randomized for treatments. Animals were then injected i.v. with saline (negative control) or compounds (50 mg/kg) on day 14, 16 and 18 or 10 mg/kg doxorubicin (Dox, positive control) on day 14. Mice were sacrificed on day 29. Body weight and tumor volume were recorded. Serial tumor volume was obtained by bi-dimensional diameter measurements with calipers, using the formula 0.4 (a×b^2) where “a” was the major tumor diameter and “b” the minor perpendicular diameter.
T/C is calculated as (Treated tumor volume/Control tumor volume)×100%. Compound 2 induced a weak reduction (T/C around 70%) of the tumor volume compared to the control.

[10] = tested on: B16F10 lung metastases; format: in vivo; conditions: for inhibition of the number of tumor nodules in lungs: FIG. 3, 50 mg/kg i.v. on day -3, -2, -1, 3, 5 and 7, p<0.001; for reduction of the number of tumor nodules: FIG. 4
Protocol: Female 6-8-week old C57BL/6 mice were injected intravenously on day 0 with 1-2.5×10^5 B16F10 melanoma cells from ATCC (source of cell culture, Dr. I. J. Fidler). B16F10 melanoma cells are a highly metastatic cell line which preferentially forms nodules in the lungs. Cells were cultured in DMEM supplemented with 10% fetal bovine serum. […] Fourteen days after inoculation, mice were sacrificed and their lungs were removed, rinsed in PBS, and placed in Bouin's fixative. The number of metastatic nodules (black colonies) on the surface of the lungs were counted.

[11] = tested on: DA-3 breast tumors; assay: Antitumor effects on a primary DA-3 breast tumor; format: in vivo, BALB/c mice
Protocol: as §3
In other trials, mice were treated with one intratumoral injection of compound 2 or cyclophosphamide (three doses) or intratumoral injection of compound 2 in combination with cyclophosphamide.

[12] = FIG. 8, combination of cyclophosphamide and intratumoral injection of compound 2

`Nc1ccc(CCNc2nc(Nc3ccc(CCNc4nc(NCCO)nc(Nc5cccc(N)c5)n4)cc3)nc(Nc3cccc(N)c3)n2)cc1` [Compound 2] was tested, and the IC50 ([1]; 24-hour cell culture) was > 100 µM, the IC50 ([1]; 72-hour cell culture) was 10 µM and the IC50 ([2]; 24-hour cell culture) was > 100 µM. The IC50 ([2]; 72-hour cell culture) was 16 µM, the IC50 ([3]; 24-hour cell culture) was > 40 µM and the IC50 ([3]; 72-hour cell culture) was > 40 µM. For the same compound, the IC50 ([4]; HepG2, 24-hour cell culture) was > 40 µM, the IC50 ([4]; HepG2, 72-hour cell culture) was > 40 µM and the IC50 ([5]; 24-hour cell culture) was 2.3 µM. The IC50 ([5]; 72-hour cell culture) was 4 µM, the IC50 ([6]; 24-hour cell culture) was 1 µM and the IC50 ([6]; 72-hour cell culture) was 1 µM. For the same compound, the IC50 ([7]; 24-hour cell culture) was 2 µM, the IC50 ([7]; 72-hour cell culture) was 1.9 µM and the IC50 ([8]; 24-hour cell culture) was 66.5 µM. The IC50 ([8]; 72-hour cell culture) was 2.2 µM, the “T/C (Treated tumor volume/Control tumor volume)” value ([9]; FIG. 1 trial) was “around 70%” and the “inhibition of the number of tumor nodules in lungs” value [10] was “significant inhibition”. The “reduction of the number of tumor nodules” value ([10]; compound 2 in combination with doxorubicin (1 mg/kg)) was 95%, the “reduction of the number of tumor nodules” value ([10]; used alone, compound 50 mg/kg i.v., doxorubicin 1 mg/kg) was 87% and the “T/C, inhibition of tumor volume” value [11, 12] was 10%. The “total tumor regressions at day 46” value [11, 12] was “four” and the “total tumor regression at day 46” value ([11]; FIG. 8, one intratumoral injection of compound 2 alone) was “one”.

`Nc1ccc(CCNc2nc(NCCCCO)nc(Nc3cccc(N)c3)n2)cc1` [Compound 8] was tested, and the IC50 ([1]; 24-hour cell culture) was > 100 µM, the IC50 ([1]; 72-hour cell culture) was > 100 µM and the IC50 ([2]; 24-hour cell culture) was > 100 µM. The IC50 ([2]; 72-hour cell culture) was > 100 µM, the IC50 ([5]; 24-hour cell culture) was 94 µM and the IC50 ([5]; 72-hour cell culture) was 100 µM. For the same compound, the IC50 ([6]; 24-hour cell culture) was 33 µM, the IC50 ([7]; 24-hour cell culture) was 85 µM and the IC50 ([8]; 24-hour cell culture) was > 100 µM. For the same compound, the IC50 ([8]; 72-hour cell culture) was 92 µM, the “T/C (Treated tumor volume/Control tumor volume)” value ([9]; FIG. 2 trial) was “around 70%” and the “inhibition of the number of tumor nodules in lungs” value [10] was “significant inhibition”. The “inhibition of the tumor volume” value ([11]; FIG. 6, 50 mg/kg) was “All compounds except compound 8 induced a significant inhibition”.

From patent publication US20090075867A1, “Triazine compounds and compositions thereof for the treatment of cancers” (priority 2005, published 2009)
